27 molecules from patent publication US20240025906A1 (NEURON23, INC., priority 2022, published 2024) can be followed below.

The target in one experiment is T1, TYK2 JH2 (Homo sapiens, UniProt P29597).
T1 construct: purchased DiscoverX (KINOMEscan KdELECT service); host or cells: E. coli BL21-derived (T7 phage display) or HEK-293
The experiment in a line: TYK2 JH2 binding assay (KINOMEscan KdELECT competitive binding). The note with it: TYK2 JH2 domain, DiscoverX KINOMEscan KdELECT (Assay A); read-out: Biochemical TYK2_DiscoverX_JH2_BND_Kd. The essentials:
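Test compounds were titrated in 11 three-fold steps against JH2 fragment captured on ligand-loaded magnetic beads, with 1 h incubation at room temperature and DMSO at 0.9%. Eluted kinase was quantified by qPCR, and Kd was fitted from the dose series.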

Experiment [1] concerns JAK1/TYK2 pSTAT5 (Tyr694/699) in THP-1 cell line. The experiment in a line: IFNa-stimulated JAK1/TYK2 pSTAT5 (Tyr694/699) inhibition cellular assay, AlphaLISA. It is filed as cell-based. The note with it: Homo sapiens; THP-1 cells, IFNa-stimulated, AlphaLISA (Assay B); read-out: Cellular_THP1_IFNa-pSTATS_TYK2. In short, it runs like this: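 Compound dilutions were dispensed first, and HBSS-suspended THP-1 cells were added on top (final top concentration 10000 nM, 6-fold series). After 1 h at 37 °C, IFNa (100 ng/mL as added) was applied for 30 min. Cells were then lysed and pSTAT5 was quantified by AlphaLISA.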
On the technique in general: Bead proximity is the source of the signal in Alpha formats.

pIC50, pKd: −log10 of the molar value.

T1 sequence (P29597 589-875 limits assumed): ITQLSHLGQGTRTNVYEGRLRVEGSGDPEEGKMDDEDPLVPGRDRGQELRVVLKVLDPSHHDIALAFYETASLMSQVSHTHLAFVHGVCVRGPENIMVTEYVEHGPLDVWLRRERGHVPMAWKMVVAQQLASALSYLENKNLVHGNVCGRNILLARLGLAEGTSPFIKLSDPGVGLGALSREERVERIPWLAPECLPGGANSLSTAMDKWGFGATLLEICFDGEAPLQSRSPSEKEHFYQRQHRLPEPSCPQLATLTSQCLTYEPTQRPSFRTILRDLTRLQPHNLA

With `CNc1ncc(-c2nc3ccc(C#N)cc3o2)c2cc(NC(=O)C3CC3)ncc12` [Example 213, N-(5-(6-cyanobenzo[d]oxazol-2-yl)-8-(methylamino)-2,7-naphthyridin-3-yl)cyclopropanecarboxamide], on TYK2 JH2, the pKd was no less than 7.00. In addition, the pIC50 in experiment [1] was no less than 6.30.

On to `CNc1ncc(-c2nc3cc(C(=O)O)ccc3o2)c2cc(NC(=O)C3CC3)ncc12` [Example 214, 2-(6-(cyclopropanecarboxamido)-1-(methylamino)-2,7-naphthyridin-4-yl)benzo[d]oxazole-5-carboxylic acid], for which, on TYK2 JH2, the pKd is no less than 7.00. Besides, in experiment [1], the pIC50 is less than 6.30.

On to `CNc1ncc(-c2nc3c(O)cccc3o2)c2cc(NC(=O)C3CC3)ncc12` [Example 215, N-(5-(4-hydroxybenzo[d]oxazol-2-yl)-8-(methylamino)-2,7-naphthyridin-3-yl)cyclopropanecarboxamide], for which, at TYK2 JH2, the pKd is no less than 7.00. For the same molecule, the pIC50 in experiment [1] is no less than 6.30.

As to `CNc1ncc(-c2nc3cc(C(C)=O)ccc3o2)c2cc(NC(=O)C3CC3)ncc12` [Example 216, N-(5-(5-acetylbenzo[d]oxazol-2-yl)-8-(methylamino)-2,7-naphthyridin-3-yl)cyclopropanecarboxamide], the pKd on TYK2 JH2 is no less than 7.00. The pIC50 in experiment [1] was no less than 6.30.

As to `CNc1ncc(-c2nc3cc(C(F)(F)F)ccc3o2)c2cc(NC(=O)C3CC3)ncc12` [Example 217, N-(8-(methylamino)-5-(5-(trifluoromethyl)benzo[d]oxazol-2-yl)-2,7-naphthyridin-3-yl)cyclopropanecarboxamide], the pKd on TYK2 JH2 was no less than 7.00. In addition, the pIC50 in experiment [1] is no less than 6.30.

`CNc1ncc(-c2nc3cc(OC(F)(F)F)ccc3o2)c2cc(NC(=O)C3CC3)ncc12` [Example 218, N-(8-(methylamino)-5-(5-(trifluoromethoxy)benzo[d]oxazol-2-yl)-2,7-naphthyridin-3-yl)cyclopropanecarboxamide]: the pKd on TYK2 JH2 was no less than 7.00. Also, the pIC50 in experiment [1] is no less than 6.30.

On to `CNc1ncc(-c2nc3ccc(Cl)cc3o2)c2cc(NC(=O)C3CC3)ncc12` [Example 219, N-(5-(6-chlorobenzo[d]oxazol-2-yl)-8-(methylamino)-2,7-naphthyridin-3-yl)cyclopropanecarboxamide], for which, on TYK2 JH2, the pKd was no less than 7.00. Besides, the pIC50 in experiment [1] is no less than 6.30.

As for `CNc1ncc(-c2nc3c(N4CCC4COC)cccc3o2)c2cc(NC(=O)C3CC3)ncc12` (stereo not drawn) [Example 220, N-(5-(4-(2-(methoxymethyl)azetidin-1-yl)benzo[d]oxazol-2-yl)-8-(methylamino)-2,7-naphthyridin-3-yl)cyclopropanecarboxamide], at TYK2 JH2, the pKd was no less than 7.00. The pIC50 in experiment [1] is less than 6.30.

On to `CNc1ncc(-c2nc3c(N4CC(OC)C4)cccc3o2)c2cc(NC(=O)C3CC3)ncc12` [Example 221, N-(5-(4-(3-methoxyazetidin-1-yl)benzo[d]oxazol-2-yl)-8-(methylamino)-2,7-naphthyridin-3-yl)cyclopropanecarboxamide], for which, on TYK2 JH2, the pKd is no less than 7.00. Besides, the pIC50 in experiment [1] was no less than 6.30.

As for `CNc1ncc(-c2nc3c(OC4CC4)cccc3o2)c2cc(NC(=O)C3CC3)ncc12` [Example 222, N-(5-(4-cyclopropoxybenzo[d]oxazol-2-yl)-8-(methylamino)-2,7-naphthyridin-3-yl)cyclopropanecarboxamide], the pKd at TYK2 JH2 is no less than 7.00. Moreover, the pIC50 in experiment [1] was no less than 6.30.

As for `CNc1ncc(-c2nc3cc(OC4CC4)ccc3o2)c2cc(NC(=O)C3CC3)ncc12` [Example 223, N-(5-(5-cyclopropoxybenzo[d]oxazol-2-yl)-8-(methylamino)-2,7-naphthyridin-3-yl)cyclopropanecarboxamide], at TYK2 JH2, the pKd is no less than 7.00. The pIC50 in experiment [1] was no less than 6.30.

On to `CNc1ncc(-c2nc3c(OC)c(OC)ccc3o2)c2cc(NC(=O)C3CC3)ncc12` [Example 224, N-(5-(4,5-dimethoxybenzo[d]oxazol-2-yl)-8-(methylamino)-2,7-naphthyridin-3-yl)cyclopropanecarboxamide], for which the pKd on TYK2 JH2 is no less than 7.00. Also, the pIC50 in experiment [1] was no less than 6.30.

With `CNc1ncc(-c2nc3cc(OC(F)F)ccc3o2)c2cc(NC(=O)C3CC3)ncc12` [Example 225, N-(5-(5-(difluoromethoxy)benzo[d]oxazol-2-yl)-8-(methylamino)-2,7-naphthyridin-3-yl)cyclopropanecarboxamide], at TYK2 JH2, the pKd is no less than 7.00. Further, in experiment [1], the pIC50 was no less than 6.30.

Regarding `CNc1ncc(-c2nc3cc(OCC4CC4)ccc3o2)c2cc(NC(=O)C3CC3)ncc12` [Example 226, N-(5-(5-(cyclopropylmethoxy)benzo[d]oxazol-2-yl)-8-(methylamino)-2,7-naphthyridin-3-yl)cyclopropanecarboxamide], the pKd on TYK2 JH2 was no less than 7.00. The pIC50 in experiment [1] is no less than 6.30.

In the case of `CNc1ncc(-c2nc3cc(OCCC#N)ccc3o2)c2cc(NC(=O)C3CC3)ncc12` [Example 227, N-(5-(5-(2-cyanoethoxy)benzo[d]oxazol-2-yl)-8-(methylamino)-2,7-naphthyridin-3-yl)cyclopropanecarboxamide], the pKd on TYK2 JH2 was no less than 7.00. In experiment [1], the pIC50 was no less than 6.30.

For the molecule `CNc1ncc(-c2nc3cc(OC4COC4)ccc3o2)c2cc(NC(=O)C3CC3)ncc12` [Example 228, N-(8-(methylamino)-5-(5-(oxetan-3-yloxy)benzo[d]oxazol-2-yl)-2,7-naphthyridin-3-yl)cyclopropanecarboxamide], the pKd on TYK2 JH2 is no less than 7.00. Moreover, in experiment [1], the pIC50 was no less than 6.30.

For `CNc1ncc(-c2nc3cc(OC4CCOC4)ccc3o2)c2cc(NC(=O)C3CC3)ncc12` (stereo not drawn) [Example 229, N-(8-(methylamino)-5-(5-((tetrahydrofuran-3-yl)oxy)benzo[d]oxazol-2-yl)-2,7-naphthyridin-3-yl)cyclopropanecarboxamide], the pKd on TYK2 JH2 is no less than 7.00. Moreover, the pIC50 in experiment [1] is no less than 6.30.

On to `CNc1ncc(-c2nc3cc(OC4CN(C(C)=O)C4)ccc3o2)c2cc(NC(=O)C3CC3)ncc12` [Example 230, N-(5-(5-((1-acetylazetidin-3-yl)oxy)benzo[d]oxazol-2-yl)-8-(methylamino)-2,7-naphthyridin-3-yl)cyclopropanecarboxamide], for which the pKd at TYK2 JH2 is no less than 7.00. In addition, in experiment [1], the pIC50 is no less than 6.30.

Take `CNc1ncc(-c2nc3cc(OCCOC)ccc3o2)c2cc(NC(=O)C3CC3)ncc12` [Example 231, N-(5-(5-(2-methoxyethoxy)benzo[d]oxazol-2-yl)-8-(methylamino)-2,7-naphthyridin-3-yl)cyclopropanecarboxamide]: the pKd on TYK2 JH2 was no less than 7.00. Also, in experiment [1], the pIC50 is no less than 6.30.

`CNc1ncc(-c2nc3cc(O[C@H]4C[C@@H](C#N)C4)ccc3o2)c2cc(NC(=O)C3CC3)ncc12` [Example 232, N-(5-(5-((1s,3s)-3-cyanocyclobutoxy)benzo[d]oxazol-2-yl)-8-(methylamino)-2,7-naphthyridin-3-yl)cyclopropanecarboxamide]: at TYK2 JH2, the pKd is no less than 7.00. The pIC50 in experiment [1] was no less than 6.30.

On to `CNc1ncc(-c2nc3cc(O[C@H]4C[C@H](C#N)C4)ccc3o2)c2cc(NC(=O)C3CC3)ncc12` [Example 233, N-(5-(5-((1r,3r)-3-cyanocyclobutoxy)benzo[d]oxazol-2-yl)-8-(methylamino)-2,7-naphthyridin-3-yl)cyclopropanecarboxamide], for which the pKd at TYK2 JH2 is no less than 7.00. Further, the pIC50 in experiment [1] is no less than 6.30.

Consider `CNc1ncc(-c2nc3cc(OCc4ccccc4)ccc3o2)c2cc(NC(=O)C3CC3)ncc12` [Example 234, N-(5-(5-(benzyloxy)benzo[d]oxazol-2-yl)-8-(methylamino)-2,7-naphthyridin-3-yl)cyclopropanecarboxamide], for which the pKd on TYK2 JH2 was no less than 7.00. Besides, the pIC50 in experiment [1] was no less than 6.30.

Regarding `CNc1ncc(-c2nc3cc(OCCN4CCOCC4)ccc3o2)c2cc(NC(=O)C3CC3)ncc12` [Example 235, N-(8-(methylamino)-5-(5-(2-morpholinoethoxy)benzo[d]oxazol-2-yl)-2,7-naphthyridin-3-yl)cyclopropanecarboxamide], the pKd at TYK2 JH2 is no less than 7.00. The pIC50 in experiment [1] was no less than 6.30.

`CNc1ncc(-c2nc3cc(OCC(C)(C)C#N)ccc3o2)c2cc(NC(=O)C3CC3)ncc12` [Example 236, N-(5-(5-(2-cyano-2-methylpropoxy)benzo[d]oxazol-2-yl)-8-(methylamino)-2,7-naphthyridin-3-yl)cyclopropanecarboxamide]: at TYK2 JH2, the pKd is no less than 7.00. Moreover, the pIC50 in experiment [1] was no less than 6.30.

As to `CNc1ncc(-c2nc3cc(C(N)=O)ccc3o2)c2cc(NC(=O)C3CC3)ncc12` [Example 237, 2-(6-(cyclopropanecarboxamido)-1-(methylamino)-2,7-naphthyridin-4-yl)benzo[d]oxazole-5-carboxamide], the pKd at TYK2 JH2 is no less than 7.00. Further, in experiment [1], the pIC50 was no less than 6.30.

Regarding `CNC(=O)c1ccc2oc(-c3cnc(NC)c4cnc(NC(=O)C5CC5)cc34)nc2c1` [Example 238, 2-(6-(cyclopropanecarboxamido)-1-(methylamino)-2,7-naphthyridin-4-yl)-N-methylbenzo[d]oxazole-5-carboxamide], at TYK2 JH2, the pKd was no less than 7.00. The pIC50 in experiment [1] was no less than 6.30.

In the case of `CNc1ncc(-c2nc3cc(OC[C@@H](C)O)ccc3o2)c2cc(NC(=O)C3CC3)ncc12` [Example 239, (R)—N-(5-(5-(2-hydroxypropoxy)benzo[d]oxazol-2-yl)-8-(methylamino)-2,7-naphthyridin-3-yl)cyclopropanecarboxamide], the pKd at TYK2 JH2 was no less than 7.00. For the same molecule, in experiment [1], the pIC50 is no less than 6.30.
